Among the data in patent US11447503B2, “Pyridine carbamates and their use as GLUN2B receptor modulators” (JANSSEN PHARMACEUTICA NV, priority 2019, dated 2022) are IC50 values, retold here.

What is called IC50 is the concentration needed to halve the response being measured.

This assay deals with human GluN1/GluN2B NMDA receptors (Homo sapiens, UniProt Q05586+Q13224). The experiment in a line: Cell-based calcium flux (FLIPR) assay on cloned human GluN1/GluN2B ion channels expressed in mammalian cells. The settings on record: standard assay; glutamate ~EC40, 10 μM glycine; stable Tet-On cell line. The procedure: 5.3. Biological Assays: Effect of Compounds of Formula (I) on Cloned Human GluN1/GluN2B Ion Channels Expressed in Mammalian Cells
human GluN1/GluN2B NMDA receptors, sequence (Q13224 27-1484, other chains not shown): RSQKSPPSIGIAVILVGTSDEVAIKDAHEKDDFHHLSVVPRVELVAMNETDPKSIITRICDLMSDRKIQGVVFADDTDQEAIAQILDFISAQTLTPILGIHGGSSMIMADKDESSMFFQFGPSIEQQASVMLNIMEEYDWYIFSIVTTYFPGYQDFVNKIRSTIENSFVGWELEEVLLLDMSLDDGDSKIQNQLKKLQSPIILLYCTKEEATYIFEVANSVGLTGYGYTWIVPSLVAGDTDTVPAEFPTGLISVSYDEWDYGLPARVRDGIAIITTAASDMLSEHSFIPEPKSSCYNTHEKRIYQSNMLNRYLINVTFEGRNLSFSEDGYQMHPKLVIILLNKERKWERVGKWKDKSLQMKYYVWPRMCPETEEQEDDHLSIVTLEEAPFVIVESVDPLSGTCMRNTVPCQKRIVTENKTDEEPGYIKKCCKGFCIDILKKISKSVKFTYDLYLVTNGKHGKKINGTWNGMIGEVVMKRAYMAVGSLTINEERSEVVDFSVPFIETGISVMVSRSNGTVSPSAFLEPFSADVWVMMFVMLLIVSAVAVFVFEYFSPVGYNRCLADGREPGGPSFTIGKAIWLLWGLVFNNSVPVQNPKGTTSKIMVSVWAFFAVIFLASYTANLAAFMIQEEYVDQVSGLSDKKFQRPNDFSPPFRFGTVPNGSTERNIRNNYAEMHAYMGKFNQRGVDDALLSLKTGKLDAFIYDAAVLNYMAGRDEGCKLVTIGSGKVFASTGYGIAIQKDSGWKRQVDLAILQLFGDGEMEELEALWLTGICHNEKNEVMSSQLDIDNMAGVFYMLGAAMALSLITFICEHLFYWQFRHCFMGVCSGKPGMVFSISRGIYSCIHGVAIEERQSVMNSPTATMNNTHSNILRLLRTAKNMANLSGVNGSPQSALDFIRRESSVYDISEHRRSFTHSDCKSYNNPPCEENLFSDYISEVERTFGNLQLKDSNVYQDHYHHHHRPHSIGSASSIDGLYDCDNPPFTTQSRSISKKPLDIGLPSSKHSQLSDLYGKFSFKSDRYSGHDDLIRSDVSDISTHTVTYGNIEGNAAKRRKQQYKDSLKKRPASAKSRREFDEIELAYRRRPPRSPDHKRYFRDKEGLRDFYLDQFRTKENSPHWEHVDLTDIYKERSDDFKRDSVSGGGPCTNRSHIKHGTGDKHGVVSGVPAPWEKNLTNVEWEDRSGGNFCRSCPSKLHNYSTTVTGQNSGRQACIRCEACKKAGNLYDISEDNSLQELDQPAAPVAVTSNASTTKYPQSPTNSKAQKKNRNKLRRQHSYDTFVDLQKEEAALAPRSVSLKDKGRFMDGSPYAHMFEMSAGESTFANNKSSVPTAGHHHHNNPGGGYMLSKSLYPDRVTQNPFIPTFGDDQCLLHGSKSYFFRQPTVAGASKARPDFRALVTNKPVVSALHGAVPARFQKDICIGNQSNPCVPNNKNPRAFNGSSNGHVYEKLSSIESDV
NMDA receptors are ion channels that are highly permeable to Ca^2+ ions, rendering it possible to monitor NMDA receptor function using cell-based calcium flux assay. In this assay, co-agonists glutamate and glycine are added to cells heterologously expressing human GluN1/GluN2B NMDA receptors to initiate cellular Ca^2+ influx. The time course of the changes in intracellular calcium is measured using a fluorescent dye and a FLIPR (Fluorometric Imaging Plate Reader) device.
Twenty four hours before measurements, the expression of the NMDA receptors in the stable cell line is induced with Tet-On inducible system in the presence of a non-selective NMDA receptor blocker. On the day of the experiment, cell culture media is carefully washed and the cells are loaded with Calcium 5 Dye Kit (Molecular Devices) in dye loading buffer containing 137 mM NaCl, 4 mM KCl, 2 mM CaCl2, 0.5 mM MgCl2 (standard assay) or 1.5 mM MgCl2 (HTS assay), 10 mM HEPES and 5 mM D-glucose; pH 7.4. After 1 h incubation at the room temperature, the dye is washed away with the assay buffer (137 mM NaCl (standard assay) or 150 mM (HTS assay), 4 mM KCl (standard assay) or 3 mM (HTS assay), 2 mM CaCl2, 0.01 mM EDTA, 10 mM HEPES and 5 mM D-glucose; pH 7.4) In the FLIPR TETRA reader, various concentrations of the test compounds are added to the cells for 5 min while fluorescence is monitored to detect potential agonist activity. Next, co-agonists, glutamate and glycine are added for another 5 minutes. The concentration of glutamate corresponding to ˜EC40 (standard assay) or EC40 (HTS assay) is used to maximize the assay's signal window and ability to detect NMDA receptor antagonists and negative allosteric modulators. A saturating concentration (10 μM) of glycine is also present in the assay. A non-selective NMDA receptor antagonist, (+)MK-801 is used as a positive control for antagonist activity. The fluorescent signal in the presence of test compounds is quantified and normalized to the signal defined by the appropriate control wells.
Background: A change in cytosolic calcium serves as a functional read-out for many receptors and channels.
Consider `CC1COC(=O)N1Cc1cncc(-c2ccc(F)c(OC(F)F)c2)c1` (racemic) [Example 5, (R/S)-3-[[5-[3-(Difluoromethoxy)-4-fluoro-phenyl]-3-pyridyl]methyl]-4-methyl-oxazolidin-2-one], for which the half-inhibitory concentration (IC50) came to 20 nM. Turning to `CC1CN(Cc2cncc(-c3ccc(F)c(OC(F)F)c3)c2)C(=O)O1` (racemic) [Example 6, (R/S)-3-[[5-[3-(Difluoromethoxy)-4-fluoro-phenyl]-3-pyridyl]methyl]-5-methyl-oxazolidin-2-one], the IC50 was 15 nM.

Consider `CC(C)C1CN(Cc2cncc(-c3ccc(F)c(OC(F)F)c3)c2)C(=O)O1` (racemic) [Example 14, (R/S)-3-[[5-[3-(Difluoromethoxy)-4-fluoro-phenyl]-3-pyridyl]methyl]-5-isopropyl-oxazolidin-2-one], for which the half-maximal inhibitory concentration (IC50) worked out at 97 nM.

`CC1COC(=O)N1Cc1cncc(-c2ccc(F)c(C(F)F)c2)c1` (racemic) [Example 25, (R/S)-3-[[5-[3-(Difluoromethyl)-4-fluoro-phenyl]-3-pyridyl]methyl]-4-methyl-oxazolidin-2-one]: the concentration for half-maximal inhibition (IC50) stood at 31 nM. As for `CC1CN(Cc2cncc(-c3ccc(F)c(C(F)F)c3)c2)C(=O)O1` (racemic) [Example 26, (R/S)-3-[[5-[3-(Difluoromethyl)-4-fluoro-phenyl]-3-pyridyl]methyl]-5-methyl-oxazolidin-2-one], the figure is 28 nM; as for `CC(C)C1CN(Cc2cncc(-c3ccc(F)c(C(F)F)c3)c2)C(=O)O1` (racemic) [Example 35, (R/S)-3-[[5-[3-(Difluoromethyl)-4-fluoro-phenyl]-3-pyridyl]methyl]-5-isopropyl-oxazolidin-2-one], 29 nM; as for `CC(c1cncc(-c2ccc(F)c(C(F)F)c2)c1)N1CCCOC1=O` (racemic) [Example 61, (R/S)-3-[1-[5-[3-(difluoromethyl)-4-fluoro-phenyl]-3-pyridyl]ethyl]-1,3-oxazinan-2-one], 323 nM. For `Cc1ncc(-c2ccc(F)c(OC(F)F)c2)cc1CN1CC(C)OC1=O` (racemic) [Example 80, (R/S)-3-[[5-[3-(Difluoromethoxy)-4-fluoro-phenyl]-2-methyl-3-pyridyl]methyl]-5-methyl-oxazolidin-2-one] the value was 22 nM; for `Cc1ncc(-c2ccc(F)c(OC(F)F)c2)cc1CN1C(=O)OCC1C` (racemic) [Example 81, (R/S)-3-[[5-[3-(Difluoromethoxy)-4-fluoro-phenyl]-2-methyl-3-pyridyl]methyl]-4-methyl-oxazolidin-2-one], 79 nM. Turning to `Cc1ncc(-c2ccc(F)c(C(F)F)c2)cc1CN1CC(C)OC1=O` (racemic) [Example 94, (R/S)-3-[[5-[3-(Difluoromethyl)-4-fluoro-phenyl]-2-methyl-3-pyridyl]methyl]-5-methyl-oxazolidin-2-one], the IC50 is 21 nM. As for `Cc1ncc(-c2ccc(F)c(C(F)F)c2)cc1CN1C(=O)OCC1C` (racemic) [Example 95, (R/S)-3-[[5-[3-(difluoromethyl)-4-fluoro-phenyl]-2-methyl-3-pyridyl]methyl]-4-methyl-oxazolidin-2-one], the figure is 113 nM; as for `CC1CN(Cc2cncc(-c3ccc(F)c(OC(F)F)c3)c2)C(=O)O1` (single isomer, unassigned) [Example 7, (S*)-3-[[5-[3-(Difluoromethoxy)-4-fluoro-phenyl]-3-pyridyl]methyl]-5-methyl-oxazolidin-2-one], 17 nM. Consider `CC1CN(Cc2cncc(-c3ccc(F)c(OC(F)F)c3)c2)C(=O)O1` (single isomer, unassigned) [Example 8, (R*)-3-[[5-[3-(Difluoromethoxy)-4-fluoro-phenyl]-3-pyridyl]methyl]-5-methyl-oxazolidin-2-one], for which the IC50 amounted to 11 nM. As for `CC(C)C1CN(Cc2cncc(-c3ccc(F)c(OC(F)F)c3)c2)C(=O)O1` (single isomer, unassigned) [Example 15, (R*)-3-[[5-[3-(Difluoromethoxy)-4-fluoro-phenyl]-3-pyridyl]methyl]-5-isopropyl-oxazolidin-2-one], the IC50 is 45 nM. Turning to `CC(C)C1CN(Cc2cncc(-c3ccc(F)c(OC(F)F)c3)c2)C(=O)O1` (single isomer, unassigned) [Example 16, (S*)-3-[[5-[3-(Difluoromethoxy)-4-fluoro-phenyl]-3-pyridyl]methyl]-5-isopropyl-oxazolidin-2-one], the IC50 was 52 nM. On to `O=C1OC(CN2CCOCC2)CN1Cc1cncc(-c2ccc(F)c(OC(F)F)c2)c1` (single isomer, unassigned) [Example 18, (R*)-3-[[5-[3-(Difluoromethoxy)-4-fluoro-phenyl]-3-pyridyl]methyl]-5-(morpholinomethyl)oxazolidin-2-one], for which the IC50 was 751 nM. As for `O=C1OC(CN2CCOCC2)CN1Cc1cncc(-c2ccc(F)c(OC(F)F)c2)c1` (single isomer, unassigned) [Example 19, (S*)-3-[[5-[3-(Difluoromethoxy)-4-fluoro-phenyl]-3-pyridyl]methyl]-5-(morpholinomethyl)oxazolidin-2-one], the figure is 1350 nM; as for `C[C@@H]1CN(Cc2cncc(-c3ccc(F)c(C(F)F)c3)c2)C(=O)O1` (single isomer, unassigned) [Example 28, (R*)-3-[[5-[3-(Difluoromethyl)-4-fluoro-phenyl]-3-pyridyl]methyl]-5-methyl-oxazolidin-2-one], 14 nM; as for `CC(C)C1CN(Cc2cncc(-c3ccc(F)c(C(F)F)c3)c2)C(=O)O1` (single isomer, unassigned) [Example 36, (R*)-3-[[5-[3-(Difluoromethyl)-4-fluoro-phenyl]-3-pyridyl]methyl]-5-isopropyl-oxazolidin-2-one], 31 nM. For `CC(C)C1CN(Cc2cncc(-c3ccc(F)c(C(F)F)c3)c2)C(=O)O1` (single isomer, unassigned) [Example 37, (S*)-3-[[5-[3-(Difluoromethyl)-4-fluoro-phenyl]-3-pyridyl]methyl]-5-isopropyl-oxazolidin-2-one], the IC50 came to 50 nM.

On to `O=C1OC(CN2CCOCC2)CN1Cc1cncc(-c2ccc(F)c(C(F)F)c2)c1` (single isomer, unassigned) [Example 40, (R*)-3-[[5-[3-(Difluoromethyl)-4-fluoro-phenyl]-3-pyridyl]methyl]-5-(morpholinomethyl)oxazolidin-2-one], for which the IC50 worked out at 205 nM. As for `O=C1OC(CN2CCOCC2)CN1Cc1cncc(-c2ccc(F)c(C(F)F)c2)c1` (single isomer, unassigned) [Example 41, (S*)-3-[[5-[3-(Difluoromethyl)-4-fluoro-phenyl]-3-pyridyl]methyl]-5-(morpholinomethyl)oxazolidin-2-one], the figure is 751 nM; as for `Cc1ncc(-c2ccc(F)c(OC(F)F)c2)cc1CN1C(=O)OCC1C` (single isomer, unassigned) [Example 82, (R*)-3-[[5-[3-(Difluoromethoxy)-4-fluoro-phenyl]-2-methyl-3-pyridyl]methyl]-4-methyl-oxazolidin-2-one], 66 nM; as for `Cc1ncc(-c2ccc(F)c(OC(F)F)c2)cc1CN1C(=O)OCC1C` (single isomer, unassigned) [Example 83, (S*)-3-[[5-[3-(Difluoromethoxy)-4-fluoro-phenyl]-2-methyl-3-pyridyl]methyl]-4-methyl-oxazolidin-2-one], 30 nM. Take `Cc1ncc(-c2ccc(F)c(OC(F)F)c2)cc1CN1CC(C)OC1=O` (stereo in doubt) [Example 86, (5R)-3-[[5-[3-(Difluoromethoxy)-4-fluoro-phenyl]-2-methyl-3-pyridyl]methyl]-5-methyl-oxazolidin-2-one]: the IC50 worked out at 20 nM. With `O=C1OCCN1Cc1cncc(-c2ccc(F)c(OC(F)F)c2)c1` [Example 2, 3-[[5-[3-(Difluoromethoxy)-4-fluoro-phenyl]-3-pyridyl]methyl]oxazolidin-2-one], the 50% inhibitory concentration (IC50) amounted to 12 nM. For the compound `CC(C)[C@H]1COC(=O)N1Cc1cncc(-c2ccc(F)c(OC(F)F)c2)c1` [Example 3, (4S)-3-[[5-[3-(Difluoromethoxy)-4-fluoro-phenyl]-3-pyridyl]methyl]-4-isopropyl-oxazolidin-2-one], the IC50 stood at 3010 nM.

As to `O=C1OCc2ccccc2N1Cc1cncc(-c2ccc(F)c(OC(F)F)c2)c1` [Example 4, 1-[[5-[3-(Difluoromethoxy)-4-fluoro-phenyl]-3-pyridyl]methyl]-4H-3,1-benzoxazin-2-one], the half-inhibitory concentration (IC50) stood at 123 nM. With `O=C1OC2(CC2)CN1Cc1cncc(-c2ccc(F)c(OC(F)F)c2)c1` [Example 9, 5-[[5-[3-(Difluoromethoxy)-4-fluoro-phenyl]-3-pyridyl]methyl]-7-oxa-5-azaspiro[2.4]heptan-6-one], the IC50 came out at 12 nM.
